Test results as given in patent US6013278A (priority 1997, dated 2000).
Entries after “also recorded” stand apart in the source; their conditions may differ. Blank lines part the entries; values can stand above or below the compound they belong to.

Legend:
[1] = tested on: BT-20 human breast cancer cells; assay: Uptake and intracellular levels of free and bound CN and PG/Iso-PG (intracellular metabolism of free and liposomal CN); assay type: in vitro ADME; conditions: 24 hr
Procedure: At selected times the cells were washed (3×with PBS), trypsinized, pooled, and homogenized in 200 μl of isotonic saline. […] Antineoplaston components or their derivatives found in the supernatant are considered to be unbound or "free", while antineoplaston agents in the pellet are thought to be "bound" to protein or cellular structures easily pelleted by low gravity centrifugation. […] To better understand the time course of the intracellular fate of liposomal CN, BT-20 cells were exposed as in Example 5 to liposomal CN for 1, 2 and 4 hours.

[2] = tested on: BT-20 cells; assay: Antineoplastic activity of free and liposomal CN (viable cell number, trypan blue); assay type: cell-based, human; conditions: single administration, 800 uM; listed as free CN
Procedure: To determine whether this effect leads to enhanced antineoplastic activity, the antineoplastic activity of free and liposomal CN was examined in BT-20 cells. […] Control cells in the liposomal condition received the equivalent levels of liposomes without CN. Following a 24, 48 or 72 hr incubation, cells from six replicate wells were pooled and the number of viable cells determined using trypan blue and a hemocytometer.

[3] = tested on: cell growth; assay: In vitro dose-response studies on individual components of antineoplaston therapy (cell growth); assay type: cell-based; conditions: Homo sapiens; free compound; cell line not stated (uptake example in BT-20); read-out: IC50 (antineoplastic activity)
[4] = tested on: cell growth; conditions: in vitro, cited from earlier work
[5] = tested on: BT-20 cells; assay: Cellular uptake of free and liposomal antineoplastons into BT-20 cells (reduction of media concentration, HPLC); conditions: for level of uptake associated with equivalent antineoplastic activity (IC50): at IC50 concentration (~0.8 mM CN, 15 mM PN); for dependence of cellular uptake on media concentration: end of eight hour incubation; for uptake rate on second and third days / cellular uptake (qualitative): free compound; for uptake rate on second and third days: day two and three vs first day; for cellular uptake (qualitative): time course up to 72 hours
Procedure: The time-course and concentration dependency of the cellular uptake of free and liposomally formulated antineoplaston agents in Examples 2, 3 and 4 were assayed by monitoring reductions in media concentrations. The uptake of these antineoplaston agents were examined in BT-20 human breast cancer cells.
Cellular uptake of free D- and free L-CN (3-phenylacetyl-amino-2, 6, piperidinedione) were investigated in BT-20 cells. Cells were plated in 200 μl of media (3,000 cells/well--96 well plates), and 24 or 96 hrs later the plating media was replaced with fresh media containing free CN at final concentrations of 100, 300, 500, 800 μM. The levels of CN remaining in the media were determined following 0, 2, 4, 6, 8, 24, 48 and 72 hours of incubation. When the cellular uptake of liposomal antineoplastons was assessed, the total levels of liposomes were equivalent across all levels of the test agents.
At the indicated times after the addition of the test compound, the media was harvested, centrifuged (110 ×g; 10 min; 4° C.) and the supernatant stored at -70° C. until assayed using a validated HPLC method. For each test agent, all concentrations were tested at all time points and there were six replicate wells at each time point. Media from the replicate wells was pooled for the HPLC analysis. Compound levels were determined with at least two HPLC injections and the variance between injections was less than 10%.
Cellular uptake of free PN was investigated in BT-20 cells.
Cellular uptake of liposomal CN was investigated in BT-20 cells.

[6] = tested on: U87 cells; assay: Cellular uptake of free and liposomal PN and PG in U87 cells
Procedure: Experiments with this cell line plated 3000 cells per well and following a four day interval to allow the cells to enter the exponential growth phase the test agents were added. The media was replaced on day three and cell counts were obtained at day 3 and 7.

[7] = tested on: human glioblastoma (U87) cells; assay: Antineoplastic effect of free and liposomal AS2-1, PG and PN (cell counts); conditions: U-87 MG, 72 h, read-out: IC50 (concentration producing a half maximal antineoplastic effect)

- Uptake of CN ([1]; 800 μM CN (53 pmole/cell) added): 43.2 pmole/cell
- Free intracellular PG/Iso-PG ([1]; 800 μM CN added): 36.7 pmole/cell
- level of uptake associated with equivalent antineoplastic activity (IC50) [5]: ~ 30 pmoles/cell
- dependence of cellular uptake on media concentration [5]: linearly related to media concentration
Compound: O=C1CCC(NC(=O)Cc2ccccc2)C(=O)N1 (centres unmarked) [CN, 3-phenylacetyl-amino-2,6, piperidinedione]
- Free intracellular CN ([1]; 800 μM, ND = Not detected): intact CN cannot be found inside the cells
- antineoplastic activity / suppression of BT-20 cell growth [2]: ineffective in suppressing BT-20 cell growth; also recorded: no antineoplastic activity
- IC50 [3]: ~0.8 mM
- suppression of cell growth ([4]; at ~0.8 mM): 50%
- antineoplastic activity on a molar basis ([4]; relative to other components): most potent antineoplastic activity
- cellular uptake by 72 hours ([5]; 72 hours): approximating that produced by liposomal CN during a two hour incubation

- cellular uptake (qualitative) [5]: rapidly and extensively taken up
Compound: O=C1CC[C@@H](NC(=O)Cc2ccccc2)C(=O)N1 [D-CN]
- uptake rate on second and third days [5]: do not exhibit this late stage reduction in CN uptake

- cellular uptake during the first six hours ([5]; free D-CN vs free L-CN): more effectively than free D-CN
- cellular uptake (qualitative) [5]: rapidly and extensively taken up
Compound: O=C1CC[C@H](NC(=O)Cc2ccccc2)C(=O)N1 [L-CN]
- uptake rate on second and third days [5]: the rate of uptake is diminished on the second and third days of the incubation

Compound: O=C(O)Cc1ccccc1 [PN, phenylacetate]
- IC50 [3]: ~15 mM
- uptake per cell ([6]; 30 mM free PN, U87 cells, 3 day): 50 pmol
- uptake of free compound compared (PN vs PG) ([6]; 3 day interval): equivalent and is concentration dependent
- IC50 [7]: ~15 mM
- uptake per cell ([5]; BT-20 cells, 30 mM, comparison value): ~ 55 pmole
- level of uptake associated with equivalent antineoplastic activity (IC50) [5]: ~ 30 pmoles/cell
- dependence of cellular uptake on media concentration [5]: linearly related to media concentration
- cellular uptake (qualitative) [5]: concentration- and time-dependent take up
- time to completion of uptake ([5]; high concentrations (e.g., 30 mM)): completed within the first two hours
- cellular uptake ([5]; initial media concentration 30 mM): ~ 54 pmoles/BT-20 cell
- cellular uptake ([5]; media concentration 3.0 mM): ~ 14 pmoles/BT-20 cell
